Several values for one entry are separate records, joined by “and”; a condition that tells them apart may be missing. Equal values may be shown once. Entries after “also recorded” stand apart in the source; their conditions may differ. Square brackets hold non-standard residues; d marks the D form. Peptide text beside a SMILES is read from it.
Legend:
Format in all cases: in vivo, human
Aβ 1-40, Aβ 1-42 = experiment: CSF Aβ 1-42 and ratio Aβ42/40, Lumipulse immunoassay; details: Day 28, one line per patient, 300 mg q.d. oral 28 d
Description: (§1) The effect of PRI-002 on cognition and function was tested by the CERAD+ battery and CDR-SB at baseline, Day 28, and Day 56, exploratory endpoints included the change of biomarkers (p-tau, t-tau, Aβ 1-40, Aβ 1-42 and Aβ oligomers) in CSF, blood plasma; change in CERAD+ test battery and CDR-SB scores.

Aβ oligomers = experiment: CSF Aβ oligomers, sFIDA technology
Description: as §1

[1] = tested on: patients with MCI or mild dementia due to AD; experiment: Mini-Mental State Examination (MMSE); details: 300 mg q.d. oral 28 d
Text: Twenty male and female (not of childbearing potential) patients between 50 and 80 years of age, with a Mini mental state examination (MMSE) score of 22 to 30, CSF biomarkers indicating AD pathology (p-tau >62 pg/ml, total CSF Aβ 1-42/1-40 ratio ≤0.055), a MRI scan in accordance with AD diagnosis not older than 3 months, at least 3 months stable medication prior to screening, were enrolled. Nineteen patients were randomized and data analyzed, one patient dropped out by withdrawal of the informed consent before treatment was initiated. Patients underwent an extensive clinical workup and received a MRI brain scan as well as a lumbar puncture. […] Patients who met any of the following criteria were not eligible for enrollment: History of seizures, stroke or transient ischemic attack, unstable medical, neurological, or psychiatric condition. Current treatment with typical antipsychotic or neuroleptic medication or within 6 months prior to screening. Anticoagulants within 3 months prior to screening, chronic use of opiates or opioids (including long-acting opioid medication) within 3 months prior to screening, stimulant medications (amphetamine, methylphenidate preparations, or modafinil) within 1 month prior to screening and throughout the study, chronic use of benzodiazepines, barbiturates, or hypnotics. […]

t-tau = experiment: CSF t-tau, Lumipulse immunoassay; details: Day 28, n=9, 300 mg q.d. oral 28 d
Description: as §1

[2] = tested on: patients with MCI or mild dementia due to AD; experiment: Other tests of the CERAD+ battery (TMT-A, TMT-B, figure drawing, figure recall, clock, WMS delayed recall); set-up: Fig Recall (Figure Recall test), mean / Clock (Clock drawing test), mean / WMS delayed recall (Wechsler Memory Scale), mean / Fig Draw (Figure Drawing test), mean / Fig Recall / Clock / WMS delayed recall / Fig Draw: scale not given here; TMT-B (Trail Making Test B), mean / TMT-A / TMT-B: unit not given here; details: for Clock (Clock drawing test), mean / Fig Draw (Figure Drawing test), mean / Fig Recall (Figure Recall test), mean / TMT-A (Trail Making Test A), mean / TMT-B (Trail Making Test B), mean / WMS delayed recall (Wechsler Memory Scale), mean: 300 mg q.d. oral 28 d; for Clock / Fig Draw / Fig Recall / TMT-A / TMT-B / WMS delayed recall: individual patient values, PRI-002 group
Description: as §1

[3] = PRI-002 concentration in CSF
Description: (§2) In addition, also CSF levels of PRI-002 were determined. Due to non-specific binding of PRI-002 to vials used for sampling and storage the measured values, which are depicted in the Supplementary Table 7 are minimal values and the actual values will most probably be higher than reported here.
(11) Why were there no PK (drug concentration) assessments in CSF? Because BBB penetration in mice vs humans can diverge, matching CSF drug concentrations in human to those achieved in the animal pharmacology studies would be more compelling than matching […] drug concentrations. If there is a fundamental technical problem, it should be mentioned in the manuscript. […]
were unable to determine exact values. Due to non-specific binding of PRI-002 to vials used for sampling and storage of CSF, the measured values, which are depicted in the Table below are minimal values and will probably be higher than reported here.
Considering the three CSF samples in which the PRI-002 levels were above the LLOQ, approximately 15% of the mean predose plasma level of all patients at Day 28 (1.97±2.4 ng/ml) reached the CSF and […]
as §2, with “We will include the Table S5 in the supplement and the following sentence in the results part page 11, line 327-331: ”In” for “In”, “non -specific” for “non-specific”, “the” for “the Supplementary”, “S7” for “7”
Considering the three CSF samples in which the PRI -002 levels were above the LLOQ, approximately […]
Table S7 PRI-002 Level in CSF of […]

p-tau = experiment: CSF p-tau181, Lumipulse immunoassay; details: Day 28, n=9, 300 mg q.d. oral 28 d
Description: as §1

[4] = tested on: patients with MCI or mild dementia due to AD; experiment: Safety MRI (ARIA); details: MRI at screening, after Day 28 and Day 56, 300 mg q.d. oral 28 d, n=9
Description: (§3) For safety assessment during baseline, at Day 14, 28, and 56, laboratory parameters and vital signs were measured, a physical exam was performed, and ECGs were recorded per protocol. A safety MRI was performed at screening, a second one within 3 days after day 28 and a third one at Day 56. During baseline and at day 28, EEG measurements were performed. In addition, nature, frequency, severity, and timing of AEs and SAEs were recorded at day 14, 28, and 56. Standardized AE reports were provided and analysed by the Data Safety and Monitoring Board (DSMB).

[5] = tested on: patients with MCI or mild dementia due to AD; experiment: Clinical Dementia Rating Sum of Boxes (CDR-SB); details: 300 mg q.d. oral 28 d
Description: as §1

[6] = tested on: patients with MCI or mild dementia due to AD; experiment: Vital signs, physical examination, ECG and EEG; details: 300 mg q.d. oral 28 d
Description: as §3

CC(C)C[C@@H](NC(=O)[C@H](NC(=O)[C@H]1CCCN1)[C@H](C)O)C(=O)N[C@H](Cc1c[nH]cn1)C(=O)N[C@@H](C(=O)N[C@H](Cc1c[nH]cn1)C(=O)N[C@H](CC(N)=O)C(=O)N[C@H](CCCNC(=N)N)C(=O)N[C@H](CCCNC(=N)N)C(=O)N[C@H](CCCNC(=N)N)C(=O)N[C@H](CCCNC(=N)N)C(=O)N[C@H](CCCNC(=N)N)C(N)=O)[C@H](C)O [PRI-002] (H-[dP][dT][dL][dH][dT][dH][dN][dR][dR][dR][dR][dR]-NH2; N-terminus and C-terminus assumed)
Aβ42, individual patients (Aβ 1-40, Aβ 1-42): 350 pg/mL and 512 pg/mL and 223 pg/mL and 748 pg/mL and 456 pg/mL and 595 pg/mL and 670 pg/mL and 791 pg/mL and 820 pg/mL | Ratio Aβ42/40, individual patients (Aβ 1-40, Aβ 1-42): 0.033 and 0.050 and 0.026 and 0.042 and 0.036 and 0.045 and 0.059 and 0.056 and 0.047 | Aβ42 oligomers, Mean (Aβ oligomers; CSF, Day 28, n=9, 300 mg q.d. oral 28 d): 4.747 fM | slope Abeta oligomers, individual patients (Aβ oligomers; CSF, change from Day 1 to Day 28, one line per patient (n = 9), 300 mg q.d. oral 28 d): 1.237 and 0.635 and 0.4087 and 0.1526 and 0.3147 and -0.0095 and -0.4177 and -0.1322 and 0.7258 | changes in p-tau, t-tau, Aβ 1-40, Aβ 1-42 and Aβ oligomers in CSF (Aβ oligomers; Day 28 versus baseline and versus placebo, 300 mg q.d. oral 28 d): no significant changes | relationship between changes in Aβ oligomer concentrations and PRI-002 plasma levels at Day 1 (Aβ oligomers; Spearman, two-tailed, n = 9): significant inverse relationship | MMSE, Mean ([1]; Day 28, n=8): 27.9 | MMSE, Mean ([1]; Day 56, n=9): 27.2 | t-tau, Mean (t-tau): 698.7 pg/mL | Clock (Clock drawing test), mean ([2]; Day 1 (baseline), N=9): 1.7 | Clock ([2]; Day 1): 1.0 and 2.0 and 3.0 | Fig Draw ([2]; Day 1): 11 and 9 and 10 and 8 | Fig Recall ([2]; Day 1): 2 and 4 and 7 and 0 and 6 and 5 and 11 and 8 | TMT-A ([2]; Day 1): 98 and 74 and 60 and 47 and 28 and 43 and 103 and 33 and 58 | TMT-B ([2]; Day 1): 240 and 283 and 160 and 205 and 100 and 77 and 141 and 80 and 132 | WMS delayed recall ([2]; Day 1): 5 and 0 and 4 and 14 and 30 and 7 and 28 and 2 | Clock (Clock drawing test), mean ([2]; Day 28, N=8): 1.6 | Fig Draw (Figure Drawing test), mean ([2]; Day 28, N=8): 10.8 | Fig Recall (Figure Recall test), mean ([2]; Day 28, N=8): 6.9 | TMT-A (Trail Making Test A), mean ([2]; Day 28, N=8): 58.4 | TMT-B (Trail Making Test B), mean ([2]; Day 28, N=8): 137.5 | WMS delayed recall (Wechsler Memory Scale), mean ([2]; Day 28, N=8): 12.8 | Clock ([2]; Day 28): 4.0 and 2.0 and 1.0 | Fig Draw ([2]; Day 28): 11 and 9 | Fig Recall ([2]; Day 28): 0 and 6 and 5 and 11 and 9 and 4 | TMT-A ([2]; Day 28): 98 and 51 and 60 and 36 and 50 and 86 and 26 | TMT-B ([2]; Day 28): 270 and 115 and 127 and 87 and 80 and 155 and 62 and 204 | WMS delayed recall ([2]; Day 28): 2 and 0 and 10 and 9 and 34 and 14 and 27 and 6 | Fig Draw (Figure Drawing test), mean ([2]; Day 56, N=9): 10.9 | Fig Recall (Figure Recall test), mean ([2]; Day 56, N=9): 7.4 | TMT-A (Trail Making Test A), mean ([2]; Day 56, N=9): 53.9 | TMT-B (Trail Making Test B), mean ([2]; Day 56, N=9): 121.9 | WMS delayed recall (Wechsler Memory Scale), mean ([2]; Day 56, N=9): 15.0 | Clock ([2]; Day 56): 4.0 and 2.0 and 1.0 and 3.0 | Fig Draw ([2]; Day 56): 11 and 10 | Fig Recall ([2]; Day 56): 0 and 4 and 7 and 2 and 10 and 11 | TMT-A ([2]; Day 56): 70 and 79 and 45 and 88 and 28 and 40 and 51 and 30 and 54 | TMT-B ([2]; Day 56): 238 and 116 and 128 and 182 and 72 and 86 and 119 and 64 and 92 | WMS delayed recall ([2]; Day 56): 3 and 0 and 15 and 30 and 23 and 39 and 10 | PRI-002 Level in CSF of individual patients ([3]; Day 28, LLOQ 0.200, minimal values due to non-specific binding to vials, one line per patient, 300 mg q.d. oral): < 0.200 ng PRI-002/ml (6×) and 0.203 ng PRI-002/ml and 0.377 ng PRI-002/ml and 0.304 ng PRI-002/ml | share of the mean predose plasma level that reached the CSF ([3]; three CSF samples above LLOQ versus predose plasma of all patients at Day 28): approximately 15% | share of the mean predose plasma level that reached the CSF ([3]; three CSF samples above LLOQ versus predose plasma of patients 2, 3 and 4 at Day 28): approximately 8% | p-tau, Mean (p-tau): 112.4 pg/mL | MRI: ARIA, edematous changes [4]: no edematous changes; also recorded: no ARIA | CDR-SB, Mean ([5]; Day 28, n=8): 1.75 | CDR-SB, Mean ([5]; Day 56, n=9): 2.39 | changes on vital signs, general physical examination, ECG and EEG [6]: no significant changes
